The record followed here is ChEMBL document CHEMBL3734729, “Synthesis and comparison of the biological activity of monocyclic phosphonate, difluorophosphonate and phosphate analogs of the natural AChE inhibitor cyclophostin” (Bioorg Med Chem, 2015).

Series [1] can be described thus: Drug degradation in sodium phosphate buffer at pH 8 after 30 mins by NMR analysis. It is filed as physicochemical. As to conditions: read-out: Drug degradation.
Series [2] has as its target T1, Acetylcholinesterase (Homo sapiens, UniProt P22303). Kind of series: Inhibition of human AChE at pH 6.
The target of series [3] is T1, Acetylcholinesterase. Briefly: Inhibition of human AChE at pH 8.
Series [4] is described as follows: Drug degradation in sodium phosphate buffer at pH 8 after 24 hrs by NMR analysis. The format is physicochemical. The conditions noted are these: read-out: Drug degradation.
Series [5] is described as follows: Drug degradation in sodium phosphate buffer at pH 8 after 1 hr by NMR analysis. It is filed as physicochemical. The conditions noted are these: read-out: Drug degradation.
In series [6] the target is Acetylcholinesterase (Musca domestica, UniProt Q7YWJ9). Briefly: Inhibition of housefly CSMA AChE.
Sequence of Acetylcholinesterase (Musca domestica, UniProt Q7YWJ9) (Q7YWJ9 whole entry): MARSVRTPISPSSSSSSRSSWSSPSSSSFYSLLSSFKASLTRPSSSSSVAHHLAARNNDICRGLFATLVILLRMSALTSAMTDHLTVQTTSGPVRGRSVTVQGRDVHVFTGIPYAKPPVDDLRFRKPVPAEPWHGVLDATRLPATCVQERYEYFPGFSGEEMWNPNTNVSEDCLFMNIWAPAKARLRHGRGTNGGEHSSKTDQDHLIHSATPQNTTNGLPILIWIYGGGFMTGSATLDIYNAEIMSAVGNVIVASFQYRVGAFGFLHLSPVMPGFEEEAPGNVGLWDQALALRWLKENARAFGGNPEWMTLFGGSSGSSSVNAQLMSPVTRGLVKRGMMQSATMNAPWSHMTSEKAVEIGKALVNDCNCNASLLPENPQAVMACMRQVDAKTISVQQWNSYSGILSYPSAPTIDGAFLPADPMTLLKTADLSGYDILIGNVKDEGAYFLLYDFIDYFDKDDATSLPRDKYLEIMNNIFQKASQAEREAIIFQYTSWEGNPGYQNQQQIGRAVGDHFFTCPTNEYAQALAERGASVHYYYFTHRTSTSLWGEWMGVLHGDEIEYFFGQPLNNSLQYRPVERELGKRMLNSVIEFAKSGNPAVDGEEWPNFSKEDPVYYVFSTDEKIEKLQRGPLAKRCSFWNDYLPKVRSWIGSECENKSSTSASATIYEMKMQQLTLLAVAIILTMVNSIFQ
Series [7] has as its target T1, Acetylcholinesterase. Kind of series: Inhibition of AChE (unknown origin).
For series [8], the target named is T1, Acetylcholinesterase. Briefly: Irreversible inhibition of AChE (unknown origin).
Series [9] is described as follows: Drug degradation in sodium phosphate buffer at pH 7 after 1 hr by NMR analysis. It is filed as physicochemical. The conditions noted are these: read-out: Drug degradation.
Series [10] is described as follows: Drug degradation in MES buffer at pH 6 after 30 mins by NMR analysis. It is filed as physicochemical. The conditions noted are these: read-out: Drug degradation.
A short description of series [11]: Drug degradation in MES buffer at pH 6.5 after 1 hr by NMR analysis. The format is physicochemical. As to conditions: read-out: Drug degradation.
Series [12] in a line: Drug degradation in sodium phosphate buffer at pH 7 after 30 mins by NMR analysis. It is filed as physicochemical. As to conditions: read-out: Drug degradation.
The nature of series [13]: Drug degradation in MES buffer at pH 6 after 1 hr by NMR analysis. The format is physicochemical. The conditions noted are these: read-out: Drug degradation.
The nature of series [14]: Drug degradation in MES buffer at pH 6 after 24 hrs by NMR analysis. The format is physicochemical. The conditions noted are these: read-out: Drug degradation.
Series [15] in a line: Drug degradation in sodium phosphate buffer at pH 7 after 24 hrs by NMR analysis. The conditions noted are these: read-out: Drug degradation. The format is physicochemical.
Series [16] is described as follows: Drug degradation in MES buffer at pH 6.5 after 30 mins by NMR analysis. The format is physicochemical. As to conditions: read-out: Drug degradation.

Each structure is given as a SMILES string. Where only a bound is given, the exact number is not on record here.

T1 sequence (P22303 whole entry): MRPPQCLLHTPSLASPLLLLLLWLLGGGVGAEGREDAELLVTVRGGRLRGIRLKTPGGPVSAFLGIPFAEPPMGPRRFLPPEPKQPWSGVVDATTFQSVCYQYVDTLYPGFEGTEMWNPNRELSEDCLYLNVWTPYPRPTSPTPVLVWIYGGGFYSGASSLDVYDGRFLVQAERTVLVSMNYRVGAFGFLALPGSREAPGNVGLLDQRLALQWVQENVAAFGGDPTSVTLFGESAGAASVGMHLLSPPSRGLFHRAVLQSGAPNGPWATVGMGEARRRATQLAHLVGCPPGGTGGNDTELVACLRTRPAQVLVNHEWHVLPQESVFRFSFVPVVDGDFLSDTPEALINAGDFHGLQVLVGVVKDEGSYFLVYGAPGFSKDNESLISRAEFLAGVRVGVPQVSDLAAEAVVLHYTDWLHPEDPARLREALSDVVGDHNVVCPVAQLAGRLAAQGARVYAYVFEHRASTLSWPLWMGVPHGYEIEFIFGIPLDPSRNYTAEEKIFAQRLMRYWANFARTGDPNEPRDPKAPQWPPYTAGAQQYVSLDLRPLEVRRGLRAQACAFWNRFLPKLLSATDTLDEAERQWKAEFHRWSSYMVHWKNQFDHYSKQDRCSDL

Turning to `COC(=O)C1=C(C)OP(=O)(OC)CCC1` (configuration not stated), the degraded at 0.5 h in series [1] is 2%. Moreover, the IC50 in series [2] was 26 µM; in series [3] it was 12 µM. In addition, the degraded at 24 h in series [4] amounted to 9.6%. In addition, the degraded at 1 h in series [5] was 2%.
For `COC(=O)C1=C(C)OP(=O)(OC)OCC1` (configuration not stated), the degraded at 0.5 h in series [1] was determined as 0%. Also, the results for the IC50 in [2] and in series [3] were 1.04 µM and 1.03 µM, respectively. Besides, the degraded at 24 h in series [4] came out at 57%. Besides, the degraded at 1 h in [5] is 4%.
Turning to `COP1(=O)OCCC(C(=O)OC(C)(C)C)=C(C)O1` (configuration not stated), the IC50 in series [2] turned out to be 6.1 µM; in series [3] it was 5.9 µM.
On the same counts, the results for `CCOP1(=O)CCCC(C(=O)OC)=C(C)O1` (configuration not stated) are 8.9 µM and 7.5 µM.
In the case of `COP1(=O)OC[C@H]2COC(=O)C2=C(C)O1` (single isomer, unassigned) [CYCLOPHOSTIN], the IC50 in [6] worked out at 0.76 nM; in [3] it was 0.04 µM; in series [7], 45 nM. Besides, the Ki in series [8] came out at 140 nM.
With `CCOP1(=O)OC(C)=C(C(=O)OC)CCC1(F)F` (configuration not stated), the degraded at 0.5 h turned out to be 5% in series [1], 0.5% in series [10], 20% in series [12] and 2.8% in series [16]. For the same compound, the degraded at 1 h was 34% in [9], 7.2% in [11], 4.1% in [13] and 50% in series [5]. Moreover, the IC50 in series [2] and in series [3] was > 100 µM each time. Further, the degraded at 24 h amounted to 65% in series [14], 100% in [4] and 100% in series [15].
With `COP1(=O)OC[C@@H]2COC(=O)C2=C(C)O1` (single isomer, unassigned), in [3], the IC50 was 0.035 µM.

Usually IC50 stands for the midpoint of a concentration-inhibition curve. Read a high IC50 as weaker potency in that assay.
